Assay results as given in patent US20230159445A1, “STAT INHIBITORY COMPOUNDS AND COMPOSITIONS” (JANPIX LIMITED, priority 2020, published 2023).

Legend:
glutathione (GSH) = assay: Reactivity Profiling with Glutathione (GSH), half-life by HPLC; conditions: 5 mM glutathione (GSH) in IMDM with 10% FBS
MV4-11 cells = assay: MV4-11 Cell Cytotoxicity Assay (CellTiter-Blue, 72 h); format: cell-based, human; conditions: Homo sapiens, MV4-11; MV-4-11 cells
How it was run: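 Viability read-out: CellTiter-Blue, 1 h, fluorescence 560/590 nm. Preceded by 72 h exposure (37° C, 5% CO2) to twofold dilution series from 50 μM, triplicate, 0.5% DMSO vehicle, applied 24 h after plating.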

## CC(C)(C)c1cc(CN(C(=O)CN(Cc2ccccc2F)S(=O)(=O)c2c(F)c(F)c(F)c(F)c2F)c2ccc(C(=O)O)cc2F)cc(C2CC2)c1 [Compound 1065, 4-(N-(3-(tert-butyl)-5-cyclopropylbenzyl)-2-(N-(2-fluorobenzyl)-(2,3,4,5,6-pentafluoro-phenyl)sulfonamido)acetamido)-3-fluorobenzoic acid]
Glutathione (GSH)
  half-life at 25 μM: 0.00167 to 2.37 h
MV4-11 cells
  IC50: 316 to 1000 nM

## CC(C)(C)c1cc(CN(C(=O)CN(Cc2ccccc2F)S(=O)(=O)c2c(F)c(F)c(F)c(F)c2F)c2ccc(C(=O)O)c(N)c2)cc(C2CC2)c1 [Compound 1070, 2-amino-4-(N-(3-(tert-butyl)-5-cyclopropylbenzyl)-2-(N-(2-fluorobenzyl)-(2,3,4,5,6-pentafluoro-phenyl)sulfonamido)acetamido)benzoic acid]
Glutathione (GSH)
  half-life at 25 μM: 0.00167 to 2.37 h
MV4-11 cells
  IC50: 316 to 1000 nM

## CN(C)c1cc(N(Cc2cc(C3CC3)cc(C(C)(C)C)c2)C(=O)CN(Cc2ccccc2F)S(=O)(=O)c2c(F)c(F)c(F)c(F)c2F)ccc1C(=O)O [Compound 1071, 4-(N-(3-(tert-butyl)-5-cyclopropylbenzyl)-2-(N-(2-fluorobenzyl)-(2,3,4,5,6-pentafluoro-phenyl)sulfonamido)acetamido)-2-(dimethylamino) benzoic acid]
Glutathione (GSH)
  half-life at 25 μM: 2.37 to 4.12 h
MV4-11 cells
  IC50: 316 to 1000 nM

## Cc1cc(C(=O)O)cc(C)c1N(Cc1cc(C2CC2)cc(C(C)(C)C)c1)C(=O)CN(Cc1ccccc1F)S(=O)(=O)c1c(F)c(F)c(F)c(F)c1F [Compound 1072, 4-(N-(3-(tert-butyl)-5-cyclopropylbenzyl)-2-(N-(2-fluorobenzyl)-(2,3,4,5,6-pentafluoro-phenyl)sulfonamido)acetamido)-3,5-dimethylbenzoic acid]
Glutathione (GSH)
  half-life at 25 μM: 4.12 to 9.23 h
MV4-11 cells
  IC50: 316 to 1000 nM

## COc1cc(C(=O)O)ccc1N(Cc1cc(C2CC2)cc(C(C)(C)C)c1)C(=O)C[C@@H](C)N(Cc1ccccc1F)S(=O)(=O)c1c(F)c(F)c(F)c(F)c1F [Compound 1073]
Glutathione (GSH)
  half-life at 25 μM: 0.00167 to 2.37 h
MV4-11 cells
  IC50: 316 to 1000 nM

## COc1cc(C(=O)O)ccc1N(Cc1cc(C2CC2)cc(C(C)(C)C)c1)C(=O)CN(Cc1ccc(F)cc1F)S(=O)(=O)c1c(F)c(F)c(F)c(F)c1F [Compound 1076, 4-(N-(3-(tert-butyl)-5-cyclopropylbenzyl)-2-(N-(2,4-difluorobenzyl)-(2,3,4,5,6-pentafluorophenyl)sulfon-amido)acetamido)-3-methoxybenzoic acid]
Glutathione (GSH)
  half-life at 25 μM: 2.37 to 4.12 h
MV4-11 cells
  IC50: 316 to 1000 nM

## COc1cc(F)ccc1CN(CC(=O)N(Cc1cc(C2CC2)cc(C(C)(C)C)c1)c1ccc(C(=O)O)cc1OC)S(=O)(=O)c1c(F)c(F)c(F)c(F)c1F [Compound 1077, 4-(N-(3-(tert-butyl)-5-cyclopropylbenzyl)-2-(N-(4-fluoro-2-methoxybenzyl)-(2,3,4,5,6-pentafluoro-phenyl)sulfonamido)acetamido)-3-methoxybenzoic acid]
Glutathione (GSH)
  half-life at 25 μM: 2.37 to 4.12 h
MV4-11 cells
  IC50: 316 to 1000 nM

## COc1cc(C(=O)O)ccc1N(Cc1cc(C2CC2)cc(C(C)(C)C)c1)C(=O)CN(Cc1c(Cl)cc(F)cc1Cl)S(=O)(=O)c1c(F)c(F)c(F)c(F)c1F [Compound 1079, 4-(N-(3-(tert-butyl)-5-cyclopropylbenzyl)-2-(N-(2,6-dichloro-4-fluorobenzyl)-(2,3,4,5,6-pentafluorophenyl)sulfon-amido)acetamido)-3-methoxybenzoic acid]
Glutathione (GSH)
  half-life at 25 μM: 4.12 to 9.23 h
MV4-11 cells
  IC50: 0.01 to 316 nM

## COc1cc(C(=O)O)ccc1N(Cc1cc(C2CC2)cc(C(C)(C)C)c1)C(=O)CN(Cc1cccc(F)c1F)S(=O)(=O)c1c(F)c(F)c(F)c(F)c1F [Compound 1080, 4-(N-(3-(tert-butyl)-5-cyclopropylbenzyl)-2-(N-(2,3-difluorobenzyl)-(2,3,4,5,6-pentafluorophenyl)sulfonamido)acetamido)-3-methoxybenzoic acid]
Glutathione (GSH)
  half-life at 25 μM: 2.37 to 4.12 h
MV4-11 cells
  IC50: 0.01 to 316 nM

## COc1cc(C(=O)O)ccc1N(Cc1cc(C2CC2)cc(C(C)(C)C)c1)C(=O)CN(Cc1c(F)c(F)cc(F)c1F)S(=O)(=O)c1c(F)c(F)c(F)c(F)c1F [Compound 1082, 4-(N-(3-(tert-butyl)-5-cyclopropylbenzyl)-2-(N-(2,3,5,6-tetrafluorobenzyl)-(2,3,4,5,6-pentafluoro-phenyl)sulfonamido)acetamido)-3-methoxybenzoic acid]
Glutathione (GSH)
  half-life at 25 μM: 2.37 to 4.12 h
MV4-11 cells
  IC50: 0.01 to 316 nM

## COc1cc(C(=O)O)ccc1N(Cc1cc(C2CC2)cc(C(C)(C)C)c1)C(=O)CN(Cc1ccc(F)c(F)c1F)S(=O)(=O)c1c(F)c(F)c(F)c(F)c1F [Compound 1083, 4-(N-(3-(tert-butyl)-5-cyclopropylbenzyl)-2-(N-(2,3,4-trifluorobenzyl)-(2,3,4,5,6-pentafluoro-phenyl)sulfonamido)acetamido)-3-methoxybenzoic acid]
Glutathione (GSH)
  half-life at 25 μM: 4.12 to 9.23 h
MV4-11 cells
  IC50: 0.01 to 316 nM

## COc1cc(C(=O)O)ccc1N(Cc1cc(C2CC2)cc(C(C)(C)C)c1)C(=O)CN(Cc1ncccc1F)S(=O)(=O)c1c(F)c(F)c(F)c(F)c1F [Compound 1084, 4-(N-(3-(tert-butyl)-5-cyclopropylbenzyl)-2-(N-((3-fluoropyridin-2-yl)methyl)-(2,3,4,5,6-pentafluoro-phenyl)sulfonamido)acetamido)-3-methoxybenzoic acid]
Glutathione (GSH)
  half-life at 25 μM: 0.00167 to 2.37 h
MV4-11 cells
  IC50: 316 to 1000 nM

## COc1cc(C(=O)O)ccc1N(Cc1cc(C2CC2)cc(C(C)(C)C)c1)C(=O)CN(Cc1ccc(F)cn1)S(=O)(=O)c1c(F)c(F)c(F)c(F)c1F [Compound 1085, 4-(N-(3-(tert-butyl)-5-cyclopropylbenzyl)-2-(N-((5-fluoropyridin-2-yl)methyl)-(2,3,4,5,6-pentafluoro-phenyl)sulfonamido)acetamido)-3-methoxybenzoic acid]
Glutathione (GSH)
  half-life at 25 μM: 0.00167 to 2.37 h
MV4-11 cells
  IC50: 316 to 1000 nM

## CC(c1cc(CN(C(=O)CN(Cc2ccccc2F)S(=O)(=O)c2c(F)c(F)c(F)c(F)c2F)c2ccc(C(=O)O)c(O)c2)cc(C2CC2)c1)C(F)(F)F (centres unmarked) [Compound 1086, 4-(N-(3-cyclopropyl-5-(1,1,1-trifluoropropan-2-yl)benzyl)-2-(N-(2-fluorobenzyl)-(2,3,4,5,6-pentafluoro-phenyl)sulfonamido)acetamido)-2-hydroxybenzoic acid]
Glutathione (GSH)
  half-life at 25 μM: 2.37 to 4.12 h
MV4-11 cells
  IC50: 1000 to 3160 nM

## Cc1cc(C(=O)O)ccc1N(Cc1cc(C2CC2)cc(C(C)(C)C)c1)C(=O)CN(Cc1ccccc1F)S(=O)(=O)c1c(F)c(F)c(F)c(F)c1F [Compound 1088, 4-(N-(3-(tert-butyl)-5-cyclopropylbenzyl)-2-(N-(2-fluorobenzyl)-(2,3,4,5,6-pentafluoro-phenyl)sulfonamido)acetamido)-3-methylbenzoic acid]
Glutathione (GSH)
  half-life at 25 μM: 2.37 to 4.12 h
MV4-11 cells
  IC50: 0.01 to 316 nM

## Cc1cc(C(=O)O)ccc1N(Cc1cc(C2CC2)cc(C(C)(C)C)c1)C(=O)CN(Cc1ccccc1C(F)(F)F)S(=O)(=O)c1c(F)c(F)c(F)c(F)c1F [Compound 1089, 4-(N-(3-(tert-butyl)-5-cyclopropylbenzyl)-2-(N-(2-(trifluoromethyl)benzyl)-(2,3,4,5,6-pentafluoro-phenyl)sulfonamido)acetamido)-3-methylbenzoic acid]
Glutathione (GSH)
  half-life at 25 μM: 9.23 to 1670 h
MV4-11 cells
  IC50: 316 to 1000 nM

## Cc1cc(C(=O)O)ccc1N(Cc1cc(C2CC2)cc(C(C)(C)C)c1)C(=O)CN(Cc1ccccc1C#N)S(=O)(=O)c1c(F)c(F)c(F)c(F)c1F [Compound 1090, 4-(N-(3-(tert-butyl)-5-cyclopropylbenzyl)-2-(N-(2-cyanobenzyl)-(2,3,4,5,6-pentafluorophenyl)sulfon-amido)acetamido)-3-methylbenzoic acid]
Glutathione (GSH)
  half-life at 25 μM: 2.37 to 4.12 h
MV4-11 cells
  IC50: 316 to 1000 nM

## CC(C)(C)c1cc(CN(C(=O)CN(Cc2ccccc2F)S(=O)(=O)c2c(F)c(F)c(F)c(F)c2F)c2ccc(C(=O)O)cc2OC2CC(F)(F)C2)cc(C2CC2)c1 [Compound 1093, 4-(N-(3-(tert-butyl)-5-cyclopropylbenzyl)-2-(N-(2-fluorobenzyl)-(2,3,4,5,6-pentafluoro-phenyl)sulfonamido)acetamido)-3-(3,3-difluorocyclobutoxy) benzoic acid]
Glutathione (GSH)
  half-life at 25 μM: 9.23 to 1670 h
MV4-11 cells
  IC50: 316 to 1000 nM

## COc1cc(C(=O)O)ccc1N(Cc1cc(C2CC2)cc(C(C)(C)C)c1)C(=O)CN(Cc1ccc(F)nc1F)S(=O)(=O)c1c(F)c(F)c(F)c(F)c1F [Compound 1095, 4-(N-(3-(tert-butyl)-5-cyclopropylbenzyl)-2-(N-((2,6-difluoropyridin-3-yl)methyl)-(2,3,4,5,6-pentafluorophenyl)sulfon-amido)acetamido)-3-methoxybenzoic acid]
Glutathione (GSH)
  half-life at 25 μM: 0.00167 to 2.37 h
MV4-11 cells
  IC50: 0.01 to 316 nM

## COc1cc(C(=O)O)ccc1N(Cc1cc(C2CC2)cc(C(C)(C)C)c1)C(=O)CN(Cc1cccnc1C(F)(F)F)S(=O)(=O)c1c(F)c(F)c(F)c(F)c1F [Compound 1097, 4-(N-(3-(tert-butyl)-5-cyclopropylbenzyl)-2-(N-((2-(trifluoromethyl)pyridin-3-yl)methyl)-(2,3,4,5,6-pentafluoro-phenyl)sulfonamido)acetamido)-3-methoxybenzoic acid]
Glutathione (GSH)
  half-life at 25 μM: 4.12 to 9.23 h
MV4-11 cells
  IC50: 316 to 1000 nM

## O=C(O)c1ccc(N(Cc2cc(C3CC3)cc(C3CC3)c2)C(=O)CN(Cc2ccccc2F)S(=O)(=O)c2c(F)c(F)c(F)c(F)c2F)c(OC2CC2)c1 [Compound 1099, 3-cyclopropoxy-4-(N-(3,5-dicyclopropylbenzyl)-2-(N-(2-fluorobenzyl)-(2,3,4,5,6-pentafluoro-phenyl)sulfonamido)acetamido)benzoic acid]
Glutathione (GSH)
  half-life at 25 μM: 4.12 to 9.23 h
MV4-11 cells
  IC50: 0.01 to 316 nM

## CC(C)(C)c1cc(CN(C(=O)CN(C2CC2)S(=O)(=O)c2c(F)c(F)c(F)c(F)c2F)c2ccc(C(=O)O)cc2OC2CC2)cc(C2CC2)c1 [Compound 1100, 4-(N-(3-(tert-butyl)-5-cyclopropylbenzyl)-2-(N-cyclopropyl-(2,3,4,5,6-pentafluorophenyl)sulfon-amido)acetamido)-3-cyclopropoxybenzoic acid]
Glutathione (GSH)
  half-life at 25 μM: 0.00167 to 2.37 h
MV4-11 cells
  IC50: 316 to 1000 nM
